Calls of active or inactive are those of the source. No cut-off for these calls is given here.
Tests used:
[1] = target: 72 kDa type IV collagenase (Homo sapiens, UniProt P08253); test: Inhibition of recombinant human MMP2 preincubated for 30 mins followed by McaPro-Leu-Gly-Leu-Dpa-Ala-Arg-NH2 substrate addition measured by fluorescence assay
MGC-803 = test: Cytotoxicity against human MGC803 cells assessed as reduction in cell viability after 48 hrs by MTT assay; format: functional, cell-based; conditions: MGC-803, 48 h
HepG2 = test: Cytotoxicity against human HepG2 cells assessed as reduction in cell viability after 48 hrs by MTT assay; format: functional, cell-based; conditions: HepG2, 48 h
A549 [2] = test: Cytotoxicity against human A549 cells assessed as reduction in cell viability after 48 hrs by MTT assay; format: functional, cell-based; conditions: A549, 48 h
T-24 = test: Cytotoxicity against human T24 cells assessed as reduction in cell viability after 48 hrs by MTT assay; format: functional, cell-based; conditions: T-24, 48 h
Stromelysin-1 = Stromelysin-1 (Homo sapiens, UniProt P08254); test: Inhibition of recombinant human MMP3 preincubated for 30 mins followed by McaPro-Leu-Gly-Leu-Dpa-Ala-Arg-NH2 substrate addition measured by fluorescence assay
[3] = target: T1, Matrix metalloproteinase-9 (Homo sapiens, UniProt P14780); test: Inhibition of recombinant human MMP9 preincubated for 30 mins followed by McaPro-Leu-Gly-Leu-Dpa-Ala-Arg-NH2 substrate addition measured by fluorescence assay
A549 [4] = test: Antimigratory activity against human A549 cells assessed as inhibition of wound healing at 10 to 20 uM after 24 hrs by phase contrast microscopic method; format: functional, cell-based
[5] = target: T1, Matrix metalloproteinase-9; test: Binding affinity to MMP9 (unknown origin) by SPR assay
A549 [6] = test: Induction of apoptosis in human A549 cells assessed as live cells at 10 uM after 24 hrs by Annexin V-FITC/propidium iodide staining based flow cytometry (reference value: 91.9%); format: functional
A549 [7] = test: Induction of apoptosis in human A549 cells assessed as live cells at 20 uM after 24 hrs by Annexin V-FITC/propidium iodide staining based flow cytometry (reference value: 91.9%); format: functional
A549 [8] = test: Induction of apoptosis in human A549 cells assessed as live cells at 40 uM after 24 hrs by Annexin V-FITC/propidium iodide staining based flow cytometry (reference value: 91.9%); format: functional
A549 [9] = test: Induction of apoptosis in human A549 cells assessed as early apoptotic cells at 10 uM after 24 hrs by Annexin V-FITC/propidium iodide staining based flow cytometry (reference value: 1.2%); format: functional
A549 [10] = test: Induction of apoptosis in human A549 cells assessed as early apoptotic cells at 20 uM after 24 hrs by Annexin V-FITC/propidium iodide staining based flow cytometry (reference value: 1.2%); format: functional
A549 [11] = test: Induction of apoptosis in human A549 cells assessed as early apoptotic cells at 40 uM after 24 hrs by Annexin V-FITC/propidium iodide staining based flow cytometry (reference value: 1.2%); format: functional
A549 [12] = test: Induction of apoptosis in human A549 cells assessed as late apoptotic cells at 10 uM after 24 hrs by Annexin V-FITC/propidium iodide staining based flow cytometry (reference value: 2.8%); format: functional
A549 [13] = test: Induction of apoptosis in human A549 cells assessed as late apoptotic cells at 20 uM after 24 hrs by Annexin V-FITC/propidium iodide staining based flow cytometry (reference value: 2.8%); format: functional
A549 [14] = test: Induction of apoptosis in human A549 cells assessed as late apoptotic cells at 40 uM after 24 hrs by Annexin V-FITC/propidium iodide staining based flow cytometry (reference value: 2.8%); format: functional
A549 [15] = test: Induction of apoptosis in human A549 cells after 24 hrs by Annexin V-FITC/propidium iodide staining based flow cytometry; format: functional, cell-based
A549 [16] = test: Induction of apoptosis in human A549 cells at 10 to 40 uM after 24 hrs by acridine orange/ethidium bromide double staining based fluorescence microscopic method; format: functional, cell-based
A549 [17] = test: Induction of apoptosis in human A549 cells assessed as increase in caspase-3 level after 24 hrs by Western blot method; format: functional, cell-based
A549 [18] = test: Induction of apoptosis in human A549 cells assessed as increase in caspase-9 level at 10 to 40 uM after 24 hrs by Western blot method; format: functional, cell-based
A549 [19] = test: Induction of apoptosis in human A549 cells assessed as increase in Bax level after 24 hrs by Western blot method; format: functional, cell-based
A549 [20] = test: Induction of apoptosis in human A549 cells assessed as decrease in Bcl-2 level at 10 to 40 uM after 24 hrs by Western blot method; format: functional, cell-based

Stromelysin-1, sequence (P08254 whole entry): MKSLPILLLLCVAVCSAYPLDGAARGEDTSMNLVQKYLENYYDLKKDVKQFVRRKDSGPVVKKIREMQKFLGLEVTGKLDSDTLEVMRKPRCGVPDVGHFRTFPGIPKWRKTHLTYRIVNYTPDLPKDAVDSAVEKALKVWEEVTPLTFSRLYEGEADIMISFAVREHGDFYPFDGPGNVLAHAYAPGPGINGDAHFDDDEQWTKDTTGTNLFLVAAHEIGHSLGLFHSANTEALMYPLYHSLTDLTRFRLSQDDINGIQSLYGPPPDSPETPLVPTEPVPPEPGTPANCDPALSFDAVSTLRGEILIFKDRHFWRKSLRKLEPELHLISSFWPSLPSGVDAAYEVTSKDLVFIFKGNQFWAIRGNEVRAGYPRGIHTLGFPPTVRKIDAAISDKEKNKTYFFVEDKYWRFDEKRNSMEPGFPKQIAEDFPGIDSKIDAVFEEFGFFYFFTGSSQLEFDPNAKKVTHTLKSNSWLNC
T1 sequence (P14780 whole entry): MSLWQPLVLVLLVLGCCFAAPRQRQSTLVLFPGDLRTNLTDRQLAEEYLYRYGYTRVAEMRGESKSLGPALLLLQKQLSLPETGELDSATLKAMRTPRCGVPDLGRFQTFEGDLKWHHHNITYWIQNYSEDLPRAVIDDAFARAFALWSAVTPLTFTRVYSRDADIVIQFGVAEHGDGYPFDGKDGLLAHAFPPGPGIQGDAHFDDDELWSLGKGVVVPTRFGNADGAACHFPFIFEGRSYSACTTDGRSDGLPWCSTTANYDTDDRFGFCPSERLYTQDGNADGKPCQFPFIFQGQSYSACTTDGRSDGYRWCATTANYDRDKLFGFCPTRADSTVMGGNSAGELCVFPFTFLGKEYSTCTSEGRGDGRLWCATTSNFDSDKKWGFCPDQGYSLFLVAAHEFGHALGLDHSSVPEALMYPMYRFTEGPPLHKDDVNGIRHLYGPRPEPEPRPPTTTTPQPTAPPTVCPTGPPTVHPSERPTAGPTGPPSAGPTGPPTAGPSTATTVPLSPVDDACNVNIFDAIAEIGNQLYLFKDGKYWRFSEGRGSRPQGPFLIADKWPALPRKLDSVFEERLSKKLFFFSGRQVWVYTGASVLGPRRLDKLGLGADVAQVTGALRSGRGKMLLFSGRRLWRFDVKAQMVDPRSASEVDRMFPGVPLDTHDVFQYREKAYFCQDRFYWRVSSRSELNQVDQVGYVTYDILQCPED
72 kDa type IV collagenase, sequence (P08253 whole entry): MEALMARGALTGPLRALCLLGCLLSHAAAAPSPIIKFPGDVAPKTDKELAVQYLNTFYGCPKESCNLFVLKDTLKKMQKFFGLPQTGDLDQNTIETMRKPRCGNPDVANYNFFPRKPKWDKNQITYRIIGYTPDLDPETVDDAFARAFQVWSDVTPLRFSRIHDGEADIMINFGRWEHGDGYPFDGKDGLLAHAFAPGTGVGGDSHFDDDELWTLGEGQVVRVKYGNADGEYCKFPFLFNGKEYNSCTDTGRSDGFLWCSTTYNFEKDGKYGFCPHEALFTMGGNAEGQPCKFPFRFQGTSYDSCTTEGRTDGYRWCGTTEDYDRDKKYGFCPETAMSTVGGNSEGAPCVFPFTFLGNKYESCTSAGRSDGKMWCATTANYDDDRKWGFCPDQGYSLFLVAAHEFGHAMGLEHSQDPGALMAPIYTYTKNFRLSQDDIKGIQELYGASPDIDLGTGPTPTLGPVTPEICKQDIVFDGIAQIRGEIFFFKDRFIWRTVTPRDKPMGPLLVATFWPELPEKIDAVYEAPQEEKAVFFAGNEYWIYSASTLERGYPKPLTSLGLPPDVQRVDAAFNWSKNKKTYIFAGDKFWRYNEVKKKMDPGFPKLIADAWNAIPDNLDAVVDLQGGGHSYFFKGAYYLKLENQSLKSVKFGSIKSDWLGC

SMILES | IC50 [1] [µM] | IC50 (MGC-803) [µM] | IC50 (HepG2) [µM] | IC50 (A549 [2]) [µM] | IC50 (T-24) [µM] | IC50 (Stromelysin-1; read-out: IC50) [µM] | IC50 [3] [µM] | further results
O=C1OCc2ccc(-c3ccc(O)cc3)c(C(=O)c3ccc(O)cc3)c21 | 81.2 | 26.4 | 24.8 | 21.9 | 23.4 | 40.9 | 36 | –
COc1ccc(-c2cc(=O)c3c(O)cc(O)cc3o2)cc1-c1c(O)cc2c(c1O)C(=O)CC(c1ccc(O)cc1)O2 (stereo not given) | > 100 | > 50 | > 50 | > 50 | > 50 | – | 37.4 | IC50 (Stromelysin-1): Not Active
O=C(c1ccc(O)cc1)c1cc(-c2ccc(O)cc2)c(-c2ccc(O)cc2)c(-c2ccc(O)cc2)c1 | 54.2 | > 50 | > 50 | > 50 | > 50 | 66.1 | > 100 | –
COc1ccc(-c2cc(=O)c3c(O)cc(O)cc3o2)cc1-c1c(O)cc(O)c2c(=O)cc(-c3ccc(O)cc3)oc12 [BILOBETIN] | > 100 | > 50 | > 50 | > 50 | > 50 | > 100 | 10.3 | –
COc1ccc(C2CC(=O)c3c(O)cc(O)cc3O2)cc1-c1c(O)cc2c(c1O)C(=O)CC(c1ccc(O)cc1)O2 (stereo not given) | 35.7 | 26 | 28.2 | 27.7 | 27.4 | – | 25.4 | IC50 (Stromelysin-1): Not Active
CC[C@@]1(O)C(=O)OCc2c1cc1n(c2=O)Cc2cc3cc(O)ccc3nc2-1 [HYDROXYCAMPTOTHECIN] | – | 6.55 | 3.19 | 1.75 | 11.8 | – | – | –
COc1ccc(-c2cc(=O)c3c(O)cc(O)cc3o2)cc1-c1c(O)cc2oc(-c3ccc(O)cc3)cc(=O)c2c1O | > 100 | 21.8 | 26.6 | 25.6 | 25.8 | 37.3 | 26.1 | –
O=C(/C=C(\c1ccccc1)c1c(-c2ccc(O)cc2)cccc1-c1ccc(O)cc1)c1ccc(O)cc1 | > 100 | > 50 | > 50 | > 50 | > 50 | > 100 | 24.7 | –
O=C(O)c1c(-c2ccc(O)cc2)ccc(CO)c1C#Cc1ccc(O)cc1 | 85.3 | 32.6 | 30.2 | 34.1 | 37.1 | 82.6 | 41 | –
O=c1cc(-c2ccc(O)c(-c3c(O)cc4oc(-c5ccc(O)cc5)cc(=O)c4c3O)c2)oc2cc(O)cc(O)c12 [ROBUSTAFLAVONE] | 10.2 | 15.6 | 19.2 | 21.4 | 21.1 | – | 11.8 | IC50 (Stromelysin-1): Not Active
O=C1OC(c2ccc(O)cc2)(c2ccc(O)cc2)c2c(-c3ccc(O)cc3)ccc(CO)c21 | 53.7 | 13.8 | 15.4 | 11 | 12.7 | 87.8 | 18.3 | –
COc1ccc(C2CC(=O)c3c(O)cc(O)cc3O2)cc1-c1c(O)cc(O)c2c(=O)cc(-c3ccc(O)cc3)oc12 (stereo not given) | 45.8 | 36.5 | 35 | 31.2 | 34.9 | 74.3 | 29.3 | –
O=c1cc(-c2ccc(O)c(-c3c(O)cc(O)c4c(=O)cc(-c5ccc(O)cc5)oc34)c2)oc2cc(O)cc(O)c12 [AMENTOFLAVONE] | 30.3 | 9.86 | 9.13 | 8.36 | 10.7 | > 100 | 2.58 | Activity (A549 [4]): Active; Kd [5]: 2.18 µM; Activity (A549 [6]): 86%; Activity (A549 [7]): 59%; Activity (A549 [8]): 57.2%; Activity (A549 [9]): 2.5%; Activity (A549 [10]): 9.5%; Activity (A549 [11]): 6.4%; Activity (A549 [12]): 7.9%; Activity (A549 [13]): 28.3%; Activity (A549 [14]): 34.3%; Activity (A549 [15]): Dose-dependent effect; Activity (A549 [16]): Active; Activity (A549 [17]): Dose-dependent effect; Activity (A549 [18]): Active; Activity (A549 [19]): Dose-dependent effect; Activity (A549 [20]): Active

Reference: ChEMBL document CHEMBL4190401, “Lung cancer and matrix metalloproteinases inhibitors of polyphenols from Selaginella tamariscina with suppression activity of migration” (Bioorg Med Chem Lett, 2018)
